In patent US8916540B2, “Antibiotic compositions and related screening methods” (Academia Sinica, priority 2008, dated 2014):
≈ marks a conversion by molar mass, not a printed value. Like-named read-outs stand apart in the source and are kept apart here.

Experiments:
H. pylori PBP1a = target: T1, H. pylori PBP1a (Helicobacter pylori, UniProt O25319, /I22V/I24V/I79V/M17V/S417T/V16I, form not given); assay type: binding; details: read-out: IC50 (fluorescence anisotropy assay, displacement of F-Moe); 100 nM F-Moe, 10 μg/ml H. pylori PBP1a, 10 mM Tris pH 8.0, 100 mM NaCl
T1 sequence (O25319 1-659 V16I/M17V/I22V/I24V/G44S/I79V/I101V/F125L/G242S/E323D/D336E/E406V/S417T/D508E): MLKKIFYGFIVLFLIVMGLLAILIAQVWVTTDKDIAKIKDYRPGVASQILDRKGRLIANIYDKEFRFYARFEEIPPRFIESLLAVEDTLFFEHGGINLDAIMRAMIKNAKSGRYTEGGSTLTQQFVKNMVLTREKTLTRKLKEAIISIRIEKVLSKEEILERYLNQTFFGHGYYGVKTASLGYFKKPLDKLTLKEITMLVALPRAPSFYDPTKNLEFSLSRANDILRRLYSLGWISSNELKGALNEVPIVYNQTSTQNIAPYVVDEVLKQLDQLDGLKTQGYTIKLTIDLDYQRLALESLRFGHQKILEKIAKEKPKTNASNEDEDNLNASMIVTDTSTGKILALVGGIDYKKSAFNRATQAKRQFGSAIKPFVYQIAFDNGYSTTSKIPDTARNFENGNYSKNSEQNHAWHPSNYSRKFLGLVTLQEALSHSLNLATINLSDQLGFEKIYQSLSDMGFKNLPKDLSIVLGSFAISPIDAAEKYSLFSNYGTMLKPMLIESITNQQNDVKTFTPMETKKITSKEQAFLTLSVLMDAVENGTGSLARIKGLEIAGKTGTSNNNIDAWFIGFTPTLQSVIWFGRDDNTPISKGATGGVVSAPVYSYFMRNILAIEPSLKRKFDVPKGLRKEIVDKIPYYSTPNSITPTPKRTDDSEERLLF
Procedure: Fluorescence anisotropy measurements were carried out in triplicates in the wells of 384-well plates using a laser fluorimetry equipped with a 488 nm laser (IsoCyte, Blueshift Biotech, Inc., Sunnyvale, Calif., USA). Various buffers, salts, pH values, and divalent cations (Ca^++, Mg^++, Co^++) were optimized for fluorescence anisotropy measurements. […] The scanning focus was above the plate bottom to avoid detection interferences. Data analysis was performed with the proprietary software, BlueImage (Blueshift Biotech Inc). Fluorescence anisotropy values (A) were calculated using the equation: A=(/∥−G*/⊥)/(/∥+2G*/⊥), where /∥ is the fluorescence intensity of emitted light parallel to excitation, /⊥ is the fluorescence intensity of emitted light perpendicular to excitation, and G is the […] that corrects for instrument bias. The G factor is experimentally determined for each run using the probe-only well as the basal an isotropy.
For the development of an assay for inhibitor screening, F-Moe was pre-incubated with H. pylori PBP1a and then competed with unlabeled Moe A at various concentrations.
For displacement assay, the initial condition contained 40 μl of 100 nM F-Moe, 10 μg/ml H. pylori PBP1a in 10 mM Tris, pH 8.0, 100 mM NaCl. Aliquots of compound stock solution were added and the anisotropy was monitored after 5 minutes of equilibration. The data from the displacement assay was used to calculate the inhibition constant (KI) and IC50 value of an inhibitor using the complete competitive binding model
[formula] The KI value was determined by plotting the total inhibitor concentration (C) versus the molar ratio of bound/free F-Moe and fitting the resulting curve to [Eq. 2], C=[(KI/KD*X)+1][RT−(LST*X)/(X+1)−KD*X [Eq. 2] […] The reported value is the average of four different runs.
For IC50 determination, the fraction of bound fluorescent probe is plotted versus the log value of the competitor concentration (C).

Bacillus subtilis = assay: Minimal inhibitory concentration (MIC) determination; assay type: cell-based; details: Bacillus subtilis
Procedure: (§1) The minimal inhibitory concentration (MIC) of tested compounds was determined following the NCCLS standard. The experiments were conducted in 96-well microtiter plates using two-fold dilutions in Muller-Hilton broth with (Streptococcus pneumonia) or without blood (Bacillus subtilis, Enterococcus faecalis, Staphylococcus aureus). Exponentially growing cells at 5×10^5 cells/ml were incubated with test compounds at various concentrations.

Enterococcus faecalis = assay: as above; assay type: cell-based; details: Enterococcus faecalis
Procedure: as §1

Staphylococcus aureus = assay: as above; assay type: cell-based; details: Staphylococcus aureus
Procedure: as §1

Streptococcus pneumoniae = assay: as above; assay type: cell-based; details: Streptococcus pneumoniae
Procedure: as §1

[1] = B. subtilis ATCC23857, Muller-Hilton broth, 18 h to 24 h, 37° C., read-out: MIC B. subtilis (ATCC23857)
[2] = E. faecalis ATCC29212, Muller-Hilton broth, 18 h to 24 h, 37° C., read-out: MIC E. faecalis (ATCC29212)
[3] = S. aureus ATCC29213, Muller-Hilton broth, 18 h to 24 h, 37° C., read-out: MIC S. aureus (ATCC29213)
[4] = S. pneumoniae ATCC49619, Muller-Hilton broth with blood, 18 h to 24 h, 37° C., read-out: MIC S. pneumoniae (ATCC49619)

Row | Compound | IC50 (H. pylori PBP1a) | MIC (Bacillus subtilis; [1]) | MIC (Enterococcus faecalis; [2]) | MIC (Staphylococcus aureus; [3]) | MIC (Streptococcus pneumoniae; [4]) | MIC (Bacillus subtilis; ATCC23857, read-out: MIC B. subtilis (ATCC23857)) | MIC (Enterococcus faecalis; ATCC29212, read-out: MIC E. faecalis (ATCC29212)) | MIC (Streptococcus pneumoniae; ATCC49619, read-out: MIC S. pneumoniae (ATCC49619)) | MIC (Staphylococcus aureus; ATCC29213, read-out: MIC S. aureus (ATCC29213))
1 | O=C1/C(=N\Nc2nccs2)C(c2ccccc2)=NN1c1ccccc1 [Compound 7] | 3.7 µM | 0.25 µM (≈ 0.0869 µg/mL) | 1 µM (≈ 0.347 µg/mL) | 4 µM (≈ 1.39 µg/mL) |  |  |  |  | 
2 | C/C(=C\c1ccc(C(=O)O)cc1)c1ccc2c(c1)C(C)(C)CCC2(C)C [Compound 8, (E)-4-(2-(5,5,8,8,-tetramethyl-5,6,7,8-tetrahydronaphthalen-2-yl)prop-1-enyl)benzoic acid] | 9.3 µM | 4 µM (≈ 1.39 µg/mL) | > 4 µM | > 4 µM | > 4 µM |  |  |  | 
3 | C=C(CC=C(C)CCC=C(C)C)CCC(C)(C)C=CCCC(C)=CCOC(COP(=O)(O)OC1OC(C(N)=O)C(C)(O)C(OC(N)=O)C1OC1OC(COC2OC(CO)C(O)C(O)C2O)C(OC2OC(C)C(OC3OC(c4nc(C(=O)CCC(=O)O)nn4-c4ccc([N+](=O)[O-])c(C(=O)NCCNC(=O)CCCCCCC(=O)NCCNC(=O)c5cc(-n6nc(C(=O)CCC(=O)O)nc6C6OC(OC7C(C)OC(OC8C(COC9OC(CO)C(O)C(O)C9O)OC(OC9C(OP(=O)(O)OCC(OCC=C(C)CCC=CC(C)(C)CCC(=C)CC=C(C)CCC=C(C)C)C(=O)O)OC(C(N)=O)C(C)(O)C9OC(N)=O)C(NC(C)=O)C8O)C(NC(C)=O)C7O)C(O)C(O)C6O)ccc5[N+](=O)[O-])c4)C(O)C(O)C3O)C(O)C2NC(C)=O)C(O)C1NC(C)=O)C(=O)O (stereo not drawn) [Compound 4] | 0.92 µM |  |  |  |  | 1.25 µM (≈ 4.72 µg/mL) | 5 µM (≈ 18.9 µg/mL) | 20 µM (≈ 75.5 µg/mL) | 0.625 µM (≈ 2.36 µg/mL)
4 | O=C1OC(c2ccc(Br)cc2)=C/C1=C/c1ccc([N+](=O)[O-])o1 [Compound 6, (Z)-5-(4-bromophenyl)-3-((5-nitrofuran-2-yl)methylene)furan-2(3H)-one] | 34 µM | 0.25 µM (≈ 0.0905 µg/mL) | 0.25 µM (≈ 0.0905 µg/mL) | 1 µM (≈ 0.362 µg/mL) | 4 µM (≈ 1.45 µg/mL) |  |  |  | 
5 | C=C(CC=C(C)CCC=C(C)C)CCC(C)(C)C=CCCC(C)=CCOC(COP(=O)(O)OC1OC(C(N)=O)C(C)(O)C(OC(N)=O)C1OC1OC(COC2OC(CO)C(O)C(O)C2O)C(OC2OC(C)C(OC3OC(c4nc(C(=O)CCC(=O)O)nn4-c4ccc([N+](=O)[O-])c(C(=O)NCCN)c4)C(O)C(O)C3O)C(O)C2NC(C)=O)C(O)C1NC(C)=O)C(=O)O (stereo not drawn) [Compound 2] | 2.1 µM | 2.5 µM (≈ 4.54 µg/mL) | 10 µM (≈ 18.2 µg/mL) | 1.25 µM (≈ 2.27 µg/mL) | 20 µM (≈ 36.4 µg/mL) |  |  |  | 
